Read-outs that look alike come from different tables or passages of the source. One block for each molecule: values may come before it.
Key:
[1] = biological target: ITK (Homo sapiens (Human), UniProt Q08881); assay: In house ELISA kinase inhibition assay, ITK; type: biochemical; settings: for IC50: in house ELISA; for Selectivity ratio: selectivity for BTK and ITK
Method: (§1) BTK inhibition Assay and selectivity Assay The assay was conducted either a by a third party (Reaction Biology Corporation, PA, USA) or in house.
(§2) b) In House Procedure for BTK, BMX, EGFR and ITK:
(§3) Kinase inhibitory activities of compounds were evaluated using the Enzyme-linked immunosorbent assay (ELISA). The kinase enzyme of BTK, BMX, EGFR and ITK were purchased from Carna Bioscience (Kobe, Japan). A total of 10 ng/mL antiphosphotyrosine (PY713) antibody (abcam, Cambridge Science Park, UK) was precoated in 96-well ELISA plates. The kinase enzymes in each reaction well were set to BTK (101.25 ng/mL), BMX (90 ng/mL), EGFR (90 ng/mL) or ITK (120 ng/mL) and incubated with indicated drugs in 1× reaction buffer (50 mmol/L HEPES pH 7.4, 20 mmol/L MgCl2, 0.1 mmol/L MnCl2, 1 mmol/L DTT) containing 20 μmol/L (the final concentration of substrate in ITK reaction was 30 μmol/L) substrate (NH2-[…]-biotin) at 25° C. for 1 h. Then, a total of 3 μmol/L ATP was added and the reaction was continued for 2 h. The products of reaction were transferred into 96-well ELISA plates containing antibody and incubated at 25° C. for 30 min. After incubation, the wells were washed with PBS and then incubated with horseradish peroxidase (HRP)-conjugated streptavidin. The wells were visualized using 3,3′,5,5′-tetramethylbenzidine (TMB), and chromogenic reaction was ended with 2 mol/L H2SO4, the absorbance was read with a multimode plate reader (PerkinElmer, USA) at 450 nm. IC50 values and curve fits were obtained using Prism (GraphPad Software). (Table I-IV)

[2] = Rat pharmacokinetic assay; type: in vivo
Method: Rat Pharmacokinetic Assay
Method: Reagent and Procedure by Hefei PreceDo Pharmaceuticals Co. Ltd.
Male Sprague-Dawley rats with 6-8 weeks of age were purchased from Beijing Vital River Laboratory Animal Technology Co., Ltd. Rats were randomly assigned with three rats per group. A single dose of compound 84 or 85 was administered by tail vein injection in iv group. In po group, compound 84 or 85 was orally. Blood samples (˜0.25 mL) were obtained by orbital venous plexus at 2 min (iv only), 5 min, 15 min, 1 h, 2 h, 4 h, 6 h, 8 h, 12 h and 24 h (po only) post dose. After centrifuged at 4000 rpm for 10 min at 4° C., plasma was collected and stored at −20° C. until determine by LC-MS/MS.

[3] = biological target: EGFR (Homo sapiens (Human), UniProt P00533); assay: In house ELISA kinase inhibition assay, EGFR; type: biochemical; settings: for IC50: in house ELISA; for Selectivity ratio: selectivity for BTK and EGFR
EGFR, sequence (P00533 25-1210): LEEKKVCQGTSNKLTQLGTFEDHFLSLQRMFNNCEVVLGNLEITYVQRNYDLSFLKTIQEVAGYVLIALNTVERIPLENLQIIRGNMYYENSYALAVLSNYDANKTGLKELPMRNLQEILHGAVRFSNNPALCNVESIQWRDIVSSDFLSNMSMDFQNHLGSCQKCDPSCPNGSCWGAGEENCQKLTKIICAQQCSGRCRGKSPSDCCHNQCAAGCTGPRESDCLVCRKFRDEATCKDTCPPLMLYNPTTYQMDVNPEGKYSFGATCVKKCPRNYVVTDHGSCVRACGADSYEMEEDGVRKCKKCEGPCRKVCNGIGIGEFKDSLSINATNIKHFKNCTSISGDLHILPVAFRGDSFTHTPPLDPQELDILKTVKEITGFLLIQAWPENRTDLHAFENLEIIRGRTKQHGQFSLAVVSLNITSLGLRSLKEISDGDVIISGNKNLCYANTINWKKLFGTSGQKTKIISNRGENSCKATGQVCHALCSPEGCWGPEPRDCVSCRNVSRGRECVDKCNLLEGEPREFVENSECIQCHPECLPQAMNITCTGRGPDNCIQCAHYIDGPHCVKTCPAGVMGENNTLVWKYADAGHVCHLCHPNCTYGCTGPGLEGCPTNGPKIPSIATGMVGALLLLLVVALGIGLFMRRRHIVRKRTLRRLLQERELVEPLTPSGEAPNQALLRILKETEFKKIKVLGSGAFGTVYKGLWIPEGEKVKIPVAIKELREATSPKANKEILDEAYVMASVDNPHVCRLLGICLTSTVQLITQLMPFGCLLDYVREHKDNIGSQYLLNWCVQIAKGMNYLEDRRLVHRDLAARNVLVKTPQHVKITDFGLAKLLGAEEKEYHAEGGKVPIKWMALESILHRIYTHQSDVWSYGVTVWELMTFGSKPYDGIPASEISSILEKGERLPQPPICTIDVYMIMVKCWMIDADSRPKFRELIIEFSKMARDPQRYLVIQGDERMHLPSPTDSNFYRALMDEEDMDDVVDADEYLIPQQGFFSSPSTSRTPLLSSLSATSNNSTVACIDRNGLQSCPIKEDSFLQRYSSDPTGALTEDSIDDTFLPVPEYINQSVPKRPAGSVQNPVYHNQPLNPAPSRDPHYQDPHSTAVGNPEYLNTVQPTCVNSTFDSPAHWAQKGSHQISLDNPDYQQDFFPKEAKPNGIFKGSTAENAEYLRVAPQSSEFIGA
Method: as §1, §2, §3

[4] = biological target: BTK (Homo sapiens (Human), UniProt Q06187); assay: In house ELISA kinase inhibition assay, BTK; type: biochemical; settings: footnote b: from in house procedure (ELISA)
BTK, sequence (Q06187 whole entry): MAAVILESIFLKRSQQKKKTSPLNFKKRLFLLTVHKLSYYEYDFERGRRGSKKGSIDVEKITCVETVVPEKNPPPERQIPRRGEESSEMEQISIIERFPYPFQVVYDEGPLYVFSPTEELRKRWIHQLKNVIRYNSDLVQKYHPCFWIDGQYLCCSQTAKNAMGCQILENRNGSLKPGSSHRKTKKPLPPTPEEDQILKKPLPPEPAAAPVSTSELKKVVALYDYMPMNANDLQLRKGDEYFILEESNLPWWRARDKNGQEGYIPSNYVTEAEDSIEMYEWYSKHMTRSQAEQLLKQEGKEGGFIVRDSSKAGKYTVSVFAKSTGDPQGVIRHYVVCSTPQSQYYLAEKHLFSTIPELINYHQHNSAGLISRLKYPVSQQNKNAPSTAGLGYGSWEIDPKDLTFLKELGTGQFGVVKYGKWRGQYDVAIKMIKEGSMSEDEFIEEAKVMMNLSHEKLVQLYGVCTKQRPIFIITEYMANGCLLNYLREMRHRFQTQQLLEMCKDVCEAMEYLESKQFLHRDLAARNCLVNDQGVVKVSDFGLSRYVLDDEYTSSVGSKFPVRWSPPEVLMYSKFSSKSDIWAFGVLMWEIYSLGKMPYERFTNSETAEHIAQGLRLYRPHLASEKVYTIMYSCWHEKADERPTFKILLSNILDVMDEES
Summary of the method: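 ELISA with biotinylated peptide substrate at 20 μmol/L (ITK 30 μmol/L); kinases preincubated with compound 1 h at 25° C in HEPES pH 7.4, MgCl2, MnCl2, DTT, then 3 μmol/L ATP added for 2 h. Phosphoproduct captured on anti-phosphotyrosine antibody, detected with HRP-streptavidin/TMB at 450 nm; IC50 by curve fit.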

[5] = biological target: BMX (Homo sapiens (Human), UniProt P51813); assay: In house ELISA kinase inhibition assay, BMX; type: biochemical; settings: for IC50: in house ELISA; for Selectivity ratio: selectivity for BTK and BMX
BMX, sequence (P51813 whole entry): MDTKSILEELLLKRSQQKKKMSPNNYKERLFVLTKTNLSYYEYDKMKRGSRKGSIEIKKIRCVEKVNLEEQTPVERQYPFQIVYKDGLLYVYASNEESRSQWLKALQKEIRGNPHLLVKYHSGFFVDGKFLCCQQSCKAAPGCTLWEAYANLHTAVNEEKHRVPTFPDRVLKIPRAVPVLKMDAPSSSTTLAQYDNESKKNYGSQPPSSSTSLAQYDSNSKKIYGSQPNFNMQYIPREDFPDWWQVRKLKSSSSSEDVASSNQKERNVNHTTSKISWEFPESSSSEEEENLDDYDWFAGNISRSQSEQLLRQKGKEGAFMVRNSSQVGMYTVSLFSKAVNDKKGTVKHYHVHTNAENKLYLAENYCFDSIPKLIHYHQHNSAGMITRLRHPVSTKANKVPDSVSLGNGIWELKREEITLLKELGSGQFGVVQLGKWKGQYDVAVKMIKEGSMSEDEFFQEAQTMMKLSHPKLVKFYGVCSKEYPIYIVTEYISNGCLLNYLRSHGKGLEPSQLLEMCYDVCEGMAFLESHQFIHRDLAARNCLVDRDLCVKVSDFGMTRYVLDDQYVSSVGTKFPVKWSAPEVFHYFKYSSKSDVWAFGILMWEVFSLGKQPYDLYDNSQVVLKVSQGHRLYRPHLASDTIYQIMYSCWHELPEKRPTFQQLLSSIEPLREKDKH
Method: as §1, §2, §3

[6] = system: TMD-8; assay: In-vitro antitumor activity assay (CellTiter-Glo cell antiproliferative activity); type: cell-based; settings: Homo sapiens, TMD8, TMD-8 cells, 72 h
Method: In-Vitro Antitumor Activity Assay
Method: Reagent and procedure by Hefei PreceDo pharmaceuticals Co. Ltd.
Cell antiproliferative activity was evaluated by the CellTiter-Glo (Promega, USA) assay. Make 1000× compounds solution in DMSO, add 1 μl 1000× compounds to […] growth medium to make 20× compounds. Dilute cell suspensions in growth medium to desired density and 95 μl were taken to 96-well plate. Add 5 μl 20× compounds into 96-well plate according to the plate map. Final DMSO concentration in each well was 0.1%. Then the cell was incubated at 37° C., 5% CO2 for 72 h. Equilibrate the assay plate to room temperature before measurement. Add 20 μl of CellTiter-Glo© Reagent into each well. Mix contents for 2 minutes on an orbital shaker to induce cell lysis. Incubate at room temperature for 10 minutes to stabilize luminescent signal. Record luminescence using EnVision Multilabel Reader (PerkinElmer). Cell viability (CV %) was calculated relative to vehicle (DMSO) treated control wells using following formula: Cell viability (%)=(RLU compound−RLU blank)/(RLU control−RLU blank)*100%. The IC50 values were calculated using GraphPad Prism 6.0 software, fitting to a 4-parameter equation to generate concentration response curves. All assays were conducted with three parallel samples and three repetitions.

[7] = male, Sprague-Dawley, plasma, iv 5 mg/kg
[8] = male, Sprague-Dawley, plasma, iv 1 mg/kg

ITK, sequence (Q08881 whole entry): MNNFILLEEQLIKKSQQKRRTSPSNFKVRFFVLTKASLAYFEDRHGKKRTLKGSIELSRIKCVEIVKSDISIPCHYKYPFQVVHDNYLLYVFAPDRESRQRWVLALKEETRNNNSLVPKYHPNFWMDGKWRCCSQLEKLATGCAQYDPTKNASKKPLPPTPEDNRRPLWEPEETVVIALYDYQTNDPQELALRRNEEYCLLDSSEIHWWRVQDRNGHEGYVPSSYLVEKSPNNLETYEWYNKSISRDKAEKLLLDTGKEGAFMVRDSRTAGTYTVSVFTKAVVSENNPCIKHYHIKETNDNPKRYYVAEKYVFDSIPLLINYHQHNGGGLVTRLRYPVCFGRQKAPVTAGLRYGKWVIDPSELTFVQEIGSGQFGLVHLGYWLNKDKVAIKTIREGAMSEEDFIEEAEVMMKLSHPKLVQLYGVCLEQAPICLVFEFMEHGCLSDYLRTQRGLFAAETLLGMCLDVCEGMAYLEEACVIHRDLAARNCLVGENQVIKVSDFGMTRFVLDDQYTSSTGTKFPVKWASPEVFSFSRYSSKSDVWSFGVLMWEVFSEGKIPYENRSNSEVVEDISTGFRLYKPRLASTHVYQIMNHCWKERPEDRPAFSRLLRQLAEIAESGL

Compound: C=CC(=O)N1CCCC[C@H]1c1nc(-c2ccc(C(=O)Nc3cc(C(F)(F)F)ccn3)cc2)c(C(N)=O)n1N [Example 84, (S)-2-(1-acryloylpiperidin-2-yl)-1-amino-4-(4-((4-(trifluoromethyl)pyridin-2-yl)carbamoyl)phenyl)-1H-imidazole-5-carboxamide]
IC50 [1]: 0.608 µM
Selectivity ratio [1]: 175.6
CL ([2]; iv 5 mg/kg): 13.4 mL/min/kg
T1/2 ([2]; iv 5 mg/kg): 1.32 h
Vd ([2]; iv 5 mg/kg): 1.50 L/kg
clearance [2, 7]: 13.4 mL/min/kg
half-life [2, 7]: 1.32 h
AUC ([2]; male, Sprague-Dawley, plasma, po 5 mg/kg, read-out: AUC): 2000 ng·h/mL
Cmax ([2]; male, Sprague-Dawley, plasma, po 5 mg/kg, read-out: Cmax): 501 ng/mL
AUC ([2]; po 5 mg/kg): 1996 ng·h/mL
Cmax ([2]; po 5 mg/kg): 501 ng/mL
F ([2]; po 5 mg/kg): 32.4%
T1/2 ([2]; po 5 mg/kg): 1.35 h
IC50 [3]: 0.156 µM
Selectivity ratio [3]: 45
IC50 [4]: 0.00346 µM
IC50 [5]: 0.114 µM
Selectivity ratio [5]: 33.0
IC50 [6]: 24.5 nM

IC50 [1]: 30 µM
Selectivity ratio [1]: 4115
clearance [2, 8]: 50 mL/min/kg
half-life [2, 8]: 1.97 h
Vd ([2]; male, Sprague-Dawley, plasma, iv 1 mg/kg, read-out: Vd): 8.62 L/kg
half-life ([2]; male, Sprague-Dawley, plasma, po 10 mg/kg): 2.74 h
AUC ([2]; male, Sprague-Dawley, plasma, po 10 mg/kg, read-out: AUC): 3250 ng·h/mL
Cmax ([2]; male, Sprague-Dawley, plasma, po 10 mg/kg, read-out: Cmax): 723 ng/mL
AUC ([2]; po 10 mg/kg): 3247 ng·h/mL
F ([2]; po 10 mg/kg): 90.6%
T1/2 ([2]; po 10 mg/kg): 2.74 h
IC50 [3]: 11.8 µM
Selectivity ratio [3]: 1619
IC50 [4]: 0.00729 µM
IC50 [5]: 0.789 µM
Selectivity ratio [5]: 108.2
IC50 [6]: 54.3 nM
Compound: CC#CC(=O)N1CCCC[C@H]1c1nc(-c2ccc(C(=O)Nc3cc(C(F)(F)F)ccn3)cc2)c(C(N)=O)n1N [Example 85, (S)-1-amino-2-(1-(but-2-ynoyl)piperidin-2-yl)-4-(4-((4-(trifluoromethyl)pyridin-2-yl)carbamoyl)phenyl)-1H-imidazole-5-carboxamide]

From patent US12291516B2, “Substituted 1-amino-1H-imidazole-5-carboxamide as Bruton's tyrosine kinase inhibitors” (Henan Zhiwei Biomedicine Co., Ltd., priority 2019, dated 2025)
